Data: patent US5434186A, “Carboxylic acid leukotriene B4 antagonists” (Hoffmann-La Roche Inc., priority 1993, dated 1995)
Read-outs that look alike come from different tables or passages of the source.

Key:
[1] = test system: LTB4 mediated calcium fluxes in human neutrophils; assay: Calcium Flux Assay (inhibition of LTB4 mediated calcium fluxes in human neutrophils); format: cell-based; settings: Neutrophil; Fura2 labelled human neutrophils, 2.4 nM LTB4
Protocol: (§1) Human neutrophils are prepared from citrated or heparinized blood. The blood was diluted 1:1 with Hank's balanced salt solution (HBSS) minus calcium and magnesium and underlayed with 10 ml lymphocyte separation medium (Organon Teknika), followed by centrifugation at 500× g for 30 min., at room temperature. Supernatants are removed down to the red blood cell pellet. HBSS minus calcium and magnesium are added to give 25 ml. To this are added 25 ml 6% dextran in 0.85% NaCl. Samples are mixed and allowed to stand 20 min at room temperature. Supernatants are removed and centrifuged at 500× g for 5 min at 4° C. Pellets are resuspended with 20 ml 0.2% saline for 20 sec followed by the addition of 20 ml 1.6% saline. Samples are centrifuged at 500× g for 5 min at 4° C. The lysis is repeated and the cells (90-95% neutrophils) are resuspended at 2× 10^6 cell/ml in GEY's salt solution.
LTB4 induced changes in intracellular calcium concentration are measured using Fura2 labelled human neutrophils. Cells at a concentration of 2-5×10^6 /ml are labelled with 5 μM Fura2 for 30 minutes in Hank's balanced salt solution without calcium and magnesium. The cells are washed and resuspended at a final concentration of 1-2×10^7 cells/ml in Gey's solution. Calcium fluxes are initiated by the addition of 2.4 nM LTB4. Test compounds at appropriate concentrations are added to the cells just prior to the addition of LTB4. […] Fluorescence measurements are made in a Perkin Elmer model LS-5B spectrofluorimeter at a temperature setting of 37° C. Calcium concentrations are determined using the ratio method (ratio of cell fluorescence to media fluorescence).
When representative compounds of formula I of the invention were tested, the results set forth in Table H and expressed as inhibition of LTB4 mediated calcium fluxes in human neutrophils, were obtained.

[2] = test system: LTB4 -induced bronchoconstriction; assay: Guinea Pig Bronchoconstriction In Vivo (LTB4-induced); design: species or system guinea pig (Hartley strain); settings: Cavia porcellus, po, read-out: ID50 (mg/kg), p.o., LTB4-induced bronchoconstriction
[3] = test system: LTB4 -induced bronchoconstriction; assay: as above; design: species or system guinea pig (Hartley strain); settings: Cavia porcellus, iv, i.v. five minutes prior to LTB4 (1 μg/kg i.v.), read-out: ID50 (mg/kg), i.v., LTB4-induced bronchoconstriction
Protocol: Male guinea pigs (Hartley strain) weighing 300 to 500 g are anesthetized with urethane (2 g/kg) intraperitoneally and a polyethylene cannula is inserted into the jugular vein for drug administration. Tracheal pressure is recorded from a cannula inserted into the trachea and connected to a Gould P23ID pressure transducer. After surgical preparation of the animals, a period of time is allowed for pulmonary functions to stabilize. The test compound is administered intravenously five minutes prior to leukotriene B4 administration according to the following protocol: Animals are paralyzed with succinylcholine (1.2 mg/kg i.v.) and mechanically respirated (Harvard rodent respirator) at 40 breaths/minute and 2.5 cc tidal volume. Propranolol (0.1 mg/kg) is then administered intravenously one minute prior to leukotriene B4 administration. Animals are then challenged with an intermediate constrictory dose of leukotriene B4 (1 μg/kg) delivered intravenously.
The change (cm H2 O) between pre and peak ventilatory pressure readings is averaged for five control and five drug treated animals. The percent inhibition is calculated from the formula:
((Control-Drug Treated)/Control)×100
When representative compounds of formula I of the invention were utilized as the test compounds the following results were obtained: […]

[4] = biological target: T1, LTB4 Receptor (Homo sapiens, UniProt Q15722); assay: LTB4 Receptor Binding Assay (inhibition of 3H-LTB4 binding, human neutrophils); settings: 0.5 nM 3H-LTB4, 45 minutes on ice, isolated human neutrophils
T1 construct: Isolated human neutrophils in Gey's salt solution; endogenous in cells; host or cells: human neutrophils isolated from blood (90-95% neutrophils)
T1 sequence (Q15722 whole entry): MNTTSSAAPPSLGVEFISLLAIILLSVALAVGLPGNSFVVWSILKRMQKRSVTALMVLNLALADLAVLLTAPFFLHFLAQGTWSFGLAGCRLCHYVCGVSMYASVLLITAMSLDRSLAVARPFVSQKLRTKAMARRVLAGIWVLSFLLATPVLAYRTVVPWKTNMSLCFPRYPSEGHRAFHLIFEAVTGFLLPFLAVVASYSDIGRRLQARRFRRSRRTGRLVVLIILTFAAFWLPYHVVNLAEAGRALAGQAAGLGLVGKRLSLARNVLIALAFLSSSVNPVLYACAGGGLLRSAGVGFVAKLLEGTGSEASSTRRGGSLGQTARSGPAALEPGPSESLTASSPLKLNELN
Protocol: Binding assays can be performed in microtiter wells. Isolated human neutrophils in Gey's salt solution are incubated on ice for 45 minutes with 0.5 nM ^3 H-LTB4 in the presence or absence of test compounds. Assays are terminated by adding 12 ml ice cold 50 mM Tris (pH 7.4) followed by rapid filtration under vacuum through GF/C filters. Radioactivity is determined by scintillation counting. Non specific binding is defined as the binding not displaced by 100 fold excess of unlabelled LTB4. Specific binding is defined as the difference between total binding and non-specific binding. Non linear analysis of the binding data is performed using LIGAND (Munson and Rodbard, 1980). Ki (Inhibition Constant) values were determined using the Cheng-Prusoff relationship (Cheng and Prusoff, 1973).
as §1

Row | IC50 [1] | Ki [4] | Compound | ED50 [2] | ED50 [3]
1 | – | 200 nM | CCCc1c(OCCCCCCc2cccc(OCCCCC(=O)N(C)C)c2CCC(=O)N(C)C)ccc2c1OCCC2=O [Example 196, 2-[6-[(3,4-Dihydro-4-oxo-8-propyl-2H-1-benzopyran-7-yl)oxy]hexyl]-6-[[5-(dimethylamino)-5-oxopentyl]oxy]-N,N-dimethylbenzenepropanamide] | – | 0.62 mg/kg
2 | – | 1 nM | O=C(O)CCCCCOc1cccc(CCCCCCOc2ccc3c(c2CCCc2ccccc2)OCCC3=O)c1CCC(=O)O [Example 200, 2-[(5-Carboxypentyl)oxy]-6-[6-[[3,4-dihydro-4-oxo-8-(3-phenylpropyl)-2H-1-benzopyran-7-yl]oxy]hexyl]benzenepropanoic Acid] | 0.16 mg/kg | 0.06 mg/kg
3 | – | 0.8 nM | CCCc1c(OCCCCCCc2ccc(C(=O)CCCC(=O)O)cc2CCC(=O)O)ccc2c1OCCC2=O [Example 211, 3-(2-Carboxyethyl)-4-[6-[(3,4-dihydro-4-oxo-8-propyl-2H-1-benzopyran-7-yl)oxy]hexyl]-δ-oxobenzenepentanoic Acid] | – | 2.39 mg/kg
4 | – | 3 nM | CCCc1c(OCCCCCOc2ccc(CCCCC(=O)O)cc2CCC(=O)O)ccc2c1OCCC2=O [Example 215, 3-(2-Carboxyethyl)-4-[[5-[(3,4-dihydro-4-oxo-8-propyl-2H-1-benzopyran-7-yl)oxy]pentyl]oxy]benzenepentanoic Acid] | 4.65 mg/kg | 0.24 mg/kg
5 | – | 1 nM | CCCc1c(OCCCCCCc2ccc(CCCCC(=O)O)cc2CCC(=O)O)ccc2c1OCCC2=O [Example 219, 3-(2-Carboxyethyl)-4-[6-[(3,4-dihydro-4-oxo-8-propyl-2H-1-benzopyran-7-yl)oxy]hexyl]benzenepentanoic Acid] | > 10 mg/kg | 0.08 mg/kg
6 | – | 1 nM | CCCc1c(OCCCCCOc2ccc3ccc(OCC(=O)O)cc3c2CCC(=O)O)ccc2c1OCCC2=O [Example 226, 7-(Carboxymethoxy)-2-[[5-[(3,4-dihydro-4-oxo-8-propyl-2H-1-benzopyran-7-yl)oxy]pentyl]oxy]-1-naphthalenepropanoic Acid] | – | 4.4 mg/kg
7 | – | 0.8 nM | CCCc1c(OCCCCCOc2ccc3cc(OCC(=O)O)ccc3c2CCC(=O)O)ccc2c1OCCC2=O [Example 231, 6-(Carboxymethoxy)-2-[[5-[(3,4-dihydro-4-oxo-8-propyl-2H-1-benzopyran-7-yl)oxy]pentyl]oxy]-1-naphthalenepropanoic Acid] | – | 1.36 mg/kg
8 | – | 2 nM | CCCc1c(OCCCCCOc2ccc3nc(CCC(=O)O)ccc3c2CCC(=O)O)ccc2c1OCCC2=O [Example 238, 6-[[5-[(3,4-Dihydro-4-oxo-8-propyl-2H-1-benzopyran-7-yl)oxy]pentyl]oxy]-2,5-quinolinedipropanoic Acid] | – | 1.24 mg/kg

The remaining lines, values behind:

Row | Compound | IC50 [1] | Ki [4] | ED50 [2] | ED50 [3]
9 | CCCc1c(OCCCCCOc2cc3c(cc2C(C)=O)CCC(C(=O)O)O3)ccc2c1OCCC2=O (racemic) [Example 11, rac-6-Acetyl-7-[5-[(3,4-dihydro-4-oxo-8-propyl-2H-1-benzopyran-7-yl)oxy]pentyloxy]-3,4-dihydro-2H-1-benzopyran-2-carboxylic Acid] | 300 nM | – | – | –
10 | CCCc1c(OCCCCCOc2ccccc2CCC(=O)O)ccc2c1OCCC2=O [Example 4, 2-[5-[(3,4-Dihydro-4-oxo-8-propyl-2H-1-benzopyran-7-yl)oxy]pentyloxy]benzenepropanoic Acid] | 26 nM | – | > 10 mg/kg | 0.66 mg/kg
11 | CCCc1c(OCCCCCOc2ccc(Cl)cc2CCC(=O)O)ccc2c1OCCC2=O [Example 17, 5-Chloro-2-[5-[(3,4-dihydro-4-oxo-8-propyl-2H-1-benzopyran-7-yl)oxy]pentyloxy]benzenepropanoic Acid] | 70 nM | 36 nM | – | 2.02 mg/kg
12 | CCCc1c(OCCCCCCOc2ccc(C(=O)c3cccc(C(=O)O)c3)cc2CCC(=O)O)ccc2c1OCCC2=O [Example 22, 5-[(3-Carboxyphenyl)carbonyl]-2-[6-[(3,4-dihydro-4-oxo-8-propyl-2H-1-benzopyran-7-yl)oxy]hexyloxy]benzenepropanoic Acid] | 1 nM | 3 nM | – | –
13 | CCCc1c(OCCCCOc2ccc(C(=O)c3cccc(C(=O)O)c3)cc2CCC(=O)O)ccc2c1OCCC2=O [Example 24, 5-[(3-Carboxyphenyl)carbonyl]-2-[4-[(3,4-dihydro-4-oxo-8-propyl-2H-1-benzopyran-7-yl)oxy]butoxy]benzenepropanoic Acid] | 11 nM | 15 nM | – | –
14 | CCCc1c(OCCCCCCc2ccccc2CCC(=O)O)ccc2c1OCCC2=O [Example 37, 2-[6-[(3,4-Dihydro-4-oxo-8-propyl-2H-1-benzopyran-7-yl)oxy]hexyl]benzenepropanoic Acid] | – | – | > 10 mg/kg | 0.45 mg/kg
15 | O=C(O)CCc1ccccc1OCCCCCOc1ccc2c(c1Cc1ccccc1)OCCC2=O [Example 73, 2-[5-[[3,4-Dihydro-4-oxo-8-(phenylmethyl)-2H-1-benzopyran-7-yl]oxy]pentyloxy]benzenepropanoic Acid] | – | 150 nM | > 10 mg/kg | 0.13 mg/kg
16 | CCCCCc1c(OCCCCCOc2ccccc2CCC(=O)O)ccc2c1OCCC2=O [Example 118, 2-[5-[(3,4-Dihydro-4-oxo-8-pentyl-2H-1-benzopyran-7-yl)oxy]pentyloxy]benzenepropanoic Acid] | – | 607 nM | > 10 mg/kg | 0.18 mg/kg
17 | CCCc1c(OCCCCCOc2ccccc2CCCC(=O)O)ccc2c1OCCC2=O [Example 145, 2-[5-[(3,4-Dihydro-4-oxo-8-propyl-2H-1-benzopyran-7-yl)oxy]pentyloxy]benzenebutanoic Acid] | – | 30 nM | > 10 mg/kg | 0.56 mg/kg
18 | CCCc1c(OCCCCCOc2ccccc2CCCCC(=O)O)ccc2c1OCCC2=O [Example 147, 2-[5-[(3,4-Dihydro-4-oxo-8-propyl-2H-1-benzopyran-7-yl)oxy]pentyloxy]benzenepentanoic Acid] | – | 200 nM | – | 1.18 mg/kg
19 | CCCc1c(OCCCCCCc2cccc(OCC(=O)O)c2CCC(=O)O)ccc2c1OCCC2=O [Example 152, 2-(Carboxymethoxy)-6-[6-[(3,4-dihydro-4-oxo-8-propyl-2H-1-benzopyran-7-yl)oxy]hexyl]benzenepropanoic Acid] | 3 nM | 1 nM | – | 2 mg/kg
20 | CCCc1c(OCCCCCOc2ccc(CCC(=O)O)cc2CCC(=O)O)ccc2c1OCCC2=O [Example 163, 4-[5-[(3,4-Dihydro-4-oxo-8-propyl-2H-1-benzopyran-7-yl)oxy]pentyloxy]-1,3-benzenedipropanoic Acid] | – | 3 nM | – | 3.11 mg/kg
21 | CCCc1c(OCCCCCCc2cccc(OCCCC(C)(C)C(=O)O)c2CCC(=O)O)ccc2c1OCCC2=O [Example 174, 2-[(4-Carboxy-4-methylpentyl)oxy]-6-[6-[(3,4-dihydro-4-oxo-8-propyl-2H-1-benzopyran-7-yl)oxy]hexyl]benzenepropanoic Acid] | – | 1 nM | 1.1 mg/kg | 0.22 mg/kg
22 | O=C(O)CCc1ccccc1OCCCCCOc1ccc2c(c1CCCc1ccccc1)OCCC2=O [Example 195, 2-[[5-[[3,4-Dihydro-4-oxo-8-(3-phenylpropyl)-2H-1-benzopyran-7-yl]oxy]pentyl]oxy]benzenepropanoic Acid] | – | 95 nM | 5.8 mg/kg | 0.04 mg/kg
